In US10980725B2, “Cosmetic compositions and method of treating the skin” (Johnson & Johnson Consumer Inc., priority 2017, dated 2021):
Read-outs that look alike come from different tables or passages of the source.

Experiments:
[1] = tested on: HBEGF (heparin-binding epidermal growth factor-like growth factor) gene expression; assay: HBEGF gene expression in human skin explants (qPCR); type: cell-based; conditions: 48 h; for HB-EGF gene expression in skin explant: topical; for HBEGF gene expression in human skin explants (in words): applied topically, 10 μM and 100 μM
Experimental: (§1) Test Method 3 CRABP2 (Cellular Retinoic Acid Binding Protein-II) and HBEGF (Heparin-Binding Epidermal Growth Factor-Like Growth Factor) Gene Expression in Human Explants
(§2) Human skin explants were prepared as described by Bellemère et al. (Journal of Investigative Dermatology (2008) 128, 542-548), treated with 4 μl of compound (1) or (2) (Cpd (1) and Cpd (2) in the figure) at 2 concentrations: 10 μM and 100 μM and incubated at 37° C., 5% CO2 in 6-well plates containing 1.5 ml of medium during 48 h. After 48 h, the epidermis of each explant is detached from the dermis and (i) lysed for RNA extraction with Qiagen Rneasy kit, (ii) reverse transcripted using the thermocycler iCycler from Biorad and Applied Biosystems kit and (iii) analyzed for gene expression by performing a qPCR using the CFX96 Biorad Q-PCR system and Power Sybergreen PCR master mix from Applied Biosystems. All steps were performed according to the manufacturer's instructions. […] Compounds (1) and (2), used at doses of 10 μM and 100 μM, elicit retinol-like bioactivity, as shown by the induction of CRABP2 and HB-EGF gene expression.

[2] = biological target: T1, Human Retinoic Acid Receptor Gamma (Homo sapiens, UniProt P13631); assay: RARγ transactivation cellular assay (luciferase reporter, Indigo Biosciences #IB02001); type: cell-based; conditions: for RARγ transactivation (in words): 0.1 μM, 1 μM and 10 μM; for RARγ receptor transactivation values (ratio: RLU of tested material/RLU of control): 24 h incubation
T1 sequence (P13631 1-454): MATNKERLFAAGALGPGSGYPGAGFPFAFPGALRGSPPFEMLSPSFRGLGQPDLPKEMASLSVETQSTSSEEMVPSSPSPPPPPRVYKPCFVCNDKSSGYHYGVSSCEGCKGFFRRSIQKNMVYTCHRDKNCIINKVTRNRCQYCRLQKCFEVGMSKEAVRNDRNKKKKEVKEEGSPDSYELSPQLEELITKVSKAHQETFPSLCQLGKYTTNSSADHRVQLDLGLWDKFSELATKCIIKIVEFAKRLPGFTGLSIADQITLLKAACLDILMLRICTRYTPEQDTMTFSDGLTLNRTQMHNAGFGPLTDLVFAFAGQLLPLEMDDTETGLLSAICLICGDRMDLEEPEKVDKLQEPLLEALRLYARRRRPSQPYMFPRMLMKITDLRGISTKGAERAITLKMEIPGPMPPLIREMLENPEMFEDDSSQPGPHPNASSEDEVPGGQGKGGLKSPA
Experimental: Test Method 1 RARγ Transactivation Cellular Assay
This assay system uses non-human cells engineered to provide constitutive, high-level expression of the Human Retinoic Acid Receptor Gamma, a ligand-dependent transcription factor. Cells include the luciferase reporter gene functionally linked to a RARγ-responsive promoter. Thus, quantifying changes in luciferase expression in the treated reporter cells provides a sensitive measure of the changes in RARγ activity.
Engineered cells are seeded in 96-well plates and treated with the assessed compounds at 3 concentrations: 0.1 μM, 1 μM and 10 μM. After 24 h incubation, treatment media are discarded and Luciferase detection reagent is added. Light emission from each assay well is quantified using a plate-reading luminometer.

[3] = tested on: CRABP2 (cellular retinoic acid binding protein-II) gene expression; assay: CRABP2 gene expression in human skin explants (qPCR); type: cell-based; conditions: 48 h; for CRABP2 mRNA expression in skin explant: topical; for CRABP2 gene expression in human skin explants (in words): applied topically, 10 μM and 100 μM
Experimental: as §1, §2

[4] = tested on: interleukin 8 (IL-8 mRNA); assay: Gene expression of inflammatory mediator interleukin 8 in skin explant; type: cell-based, human; conditions: 48 h; for IL-8 mRNA expression in skin explant: topical; for IL-8 mRNA expression as compared to Neutrogena RWR (in words): skin explant
Experimental: as §2
Test Method 4 Gene Expression of Inflammatory Mediator Interleukin 8 (IL-8 mRNA)
The skin explant used in Test Method 3 was used to measure the expression of the gen for IL-8 mRNA.
As depicted in the Figure below, IL-8 mRNA expression is lower in explant treated with both compounds (1) and (2) as compared to Neutrogena RWR.

RARγ receptors = biological target: T2, RARγ receptors (Homo sapiens, UniProt P13631); assay: GenBLAzer RAR gamma cell-based assay, agonist mode (AG) and positive allosteric modulator mode (PAM); conditions: unit from horizontal axis of FIG. 1
T2 sequence (P13631 185-419 limits assumed): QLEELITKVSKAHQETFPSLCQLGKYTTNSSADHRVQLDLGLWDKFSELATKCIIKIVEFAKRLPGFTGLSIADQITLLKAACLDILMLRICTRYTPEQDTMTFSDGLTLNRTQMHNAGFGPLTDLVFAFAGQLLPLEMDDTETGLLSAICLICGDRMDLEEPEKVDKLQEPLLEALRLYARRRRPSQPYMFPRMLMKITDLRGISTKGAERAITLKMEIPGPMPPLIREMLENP
Experimental: Test Method 2 RARγ Receptors in Both Agonist Mode (AG) and Positive Allosteric Modulator Mode (PAM)
Dose response activity on RARγ receptors in both agonist mode (AG) and Positive allosteric modulator mode (PAM) was tested using Invitrogen's GenBLAzer® RAR gamma cell-based assay according to the manufacturer's instructions.

[5] = 10^−4M in vehicle (PG70/EtOH30)
[6] = 10^−5M in vehicle (PG70/EtOH30)
[7] = agonist mode, read-out: average EC50, dose response activity on RARγ in agonist mode
[8] = positive allosteric modulator mode, read-out: average EC50, dose response activity on RARγ in positive allosteric modulator mode

For `C=C(c1ccc(C(=O)O)cc1)c1ccc2c(c1)C(C)(C)C(C)(C)C2(C)C` [Compound 2, 4-(1-(1,1,2,2,3,3-hexamethyl-2,3-dihydro-1H-inden-5-yl)vinyl)benzoic acid], the “HB-EGF gene expression in skin explant” value [1, 5] was 358%, the “HB-EGF gene expression in skin explant” value [1, 6] was 173% and the “HBEGF gene expression in human skin explants (in words)” value [1] was “induced”. For the same compound, the “RARγ transactivation (in words)” value [2] was “showed RARγ transactivation”, the “RARγ receptor transactivation values (ratio: RLU of tested material/RLU of control)” value ([2]; concentration 0.1 μM) was 5.5663 and the “RARγ receptor transactivation values (ratio: RLU of tested material/RLU of control)” value ([2]; concentration 1 μM) was 3.253. The “RARγ receptor transactivation values (ratio: RLU of tested material/RLU of control)” value ([2]; concentration 10 μM) was 6.7229, the “CRABP2 mRNA expression in skin explant” value [3, 5] was 340 % control and the “CRABP2 mRNA expression in skin explant” value [3, 6] was 191 % control. For the same compound, the “CRABP2 gene expression in human skin explants (in words)” value [3] was “induced”, the “IL-8 mRNA expression in skin explant” value [4, 5] was 690 % control and the “IL-8 mRNA expression in skin explant” value [4, 6] was 334 % control. For the same compound, the “IL-8 mRNA expression as compared to Neutrogena RWR (in words)” value [4] was “lower”, the EC50 (RARγ receptors; [7]) was 7.1 ± 0.7 nM and the EC50 (RARγ receptors; [8]) was 6.7 ± 2.7 nM.

In the case of `CC(/C=C/C=C(\C)c1ccc2c(c1)C(C)(C)C(C)(C)C2(C)C)=C\C(=O)O` [Compound 1, (2E,4E,6E)-7-(1,1,2,2,3,3-hexamethyl-2,3-dihydro-1H-inden-5-yl)-3-methylocta-2,4,6-trienoic acid], the “HB-EGF gene expression in skin explant” value [1, 5] is reported as 513%, the “HB-EGF gene expression in skin explant” value [1, 6] is reported as 218% and the “HBEGF gene expression in human skin explants (in words)” value [1] is reported as “induced”. The “RARγ transactivation (in words)” value [2] was “showed RARγ transactivation”, the “RARγ receptor transactivation values (ratio: RLU of tested material/RLU of control)” value ([2]; concentration 0.1 μM) was 10.6988 and the “RARγ receptor transactivation values (ratio: RLU of tested material/RLU of control)” value ([2]; concentration 1 μM) was 8.4578. The “RARγ receptor transactivation values (ratio: RLU of tested material/RLU of control)” value ([2]; concentration 10 μM) was 6.506, the “CRABP2 mRNA expression in skin explant” value [3, 5] was 496 % control and the “CRABP2 mRNA expression in skin explant” value [3, 6] was 256 % control. For the same compound, the “CRABP2 gene expression in human skin explants (in words)” value [3] was “induced”, the “IL-8 mRNA expression in skin explant” value [4, 5] was 410 % control and the “IL-8 mRNA expression in skin explant” value [4, 6] was 422 % control. The “IL-8 mRNA expression as compared to Neutrogena RWR (in words)” value [4] was “lower”, the EC50 (RARγ receptors; [7]) was 0.0831 nM and the EC50 (RARγ receptors; [8]) was 0.0301 nM.
